Molecular target: Angiotensin-converting enzyme (Homo sapiens, UniProt P12821)
Test: Enzyme Inhibition Assay
Details: pH 6.8; 25 °C
Description: Continuous assays were performed by recording the fluorescence increase at 405 nm (excitation@ 320 nm) induced by the cleavage of fluorogenic substrate, using 96-well nonbinding surface plates. Fluorescence signals were monitored using a Fluoroscan Ascent photon counter spectrophotometer (Thermo-Labsystems, Courtaboeuf, France) equipped with a temperature control device and a plate shaker. The substrate and enzyme concentrations for the experiments were chosen so as to remain well below 10% of substrate utilization and to observe initial rates. For each inhibitor, percentage inhibition was determined in triplicate experiments at five inhibitor concentrations, chosen to observe a 20-80% range of inhibition. Ki values were determined using the method proposed by Horovitz and Leviski, as described in Proc. Natl. Acad. Sci. U.S.A. 1987, 84, 6654.

Chain of Angiotensin-converting enzyme (P12821 whole entry): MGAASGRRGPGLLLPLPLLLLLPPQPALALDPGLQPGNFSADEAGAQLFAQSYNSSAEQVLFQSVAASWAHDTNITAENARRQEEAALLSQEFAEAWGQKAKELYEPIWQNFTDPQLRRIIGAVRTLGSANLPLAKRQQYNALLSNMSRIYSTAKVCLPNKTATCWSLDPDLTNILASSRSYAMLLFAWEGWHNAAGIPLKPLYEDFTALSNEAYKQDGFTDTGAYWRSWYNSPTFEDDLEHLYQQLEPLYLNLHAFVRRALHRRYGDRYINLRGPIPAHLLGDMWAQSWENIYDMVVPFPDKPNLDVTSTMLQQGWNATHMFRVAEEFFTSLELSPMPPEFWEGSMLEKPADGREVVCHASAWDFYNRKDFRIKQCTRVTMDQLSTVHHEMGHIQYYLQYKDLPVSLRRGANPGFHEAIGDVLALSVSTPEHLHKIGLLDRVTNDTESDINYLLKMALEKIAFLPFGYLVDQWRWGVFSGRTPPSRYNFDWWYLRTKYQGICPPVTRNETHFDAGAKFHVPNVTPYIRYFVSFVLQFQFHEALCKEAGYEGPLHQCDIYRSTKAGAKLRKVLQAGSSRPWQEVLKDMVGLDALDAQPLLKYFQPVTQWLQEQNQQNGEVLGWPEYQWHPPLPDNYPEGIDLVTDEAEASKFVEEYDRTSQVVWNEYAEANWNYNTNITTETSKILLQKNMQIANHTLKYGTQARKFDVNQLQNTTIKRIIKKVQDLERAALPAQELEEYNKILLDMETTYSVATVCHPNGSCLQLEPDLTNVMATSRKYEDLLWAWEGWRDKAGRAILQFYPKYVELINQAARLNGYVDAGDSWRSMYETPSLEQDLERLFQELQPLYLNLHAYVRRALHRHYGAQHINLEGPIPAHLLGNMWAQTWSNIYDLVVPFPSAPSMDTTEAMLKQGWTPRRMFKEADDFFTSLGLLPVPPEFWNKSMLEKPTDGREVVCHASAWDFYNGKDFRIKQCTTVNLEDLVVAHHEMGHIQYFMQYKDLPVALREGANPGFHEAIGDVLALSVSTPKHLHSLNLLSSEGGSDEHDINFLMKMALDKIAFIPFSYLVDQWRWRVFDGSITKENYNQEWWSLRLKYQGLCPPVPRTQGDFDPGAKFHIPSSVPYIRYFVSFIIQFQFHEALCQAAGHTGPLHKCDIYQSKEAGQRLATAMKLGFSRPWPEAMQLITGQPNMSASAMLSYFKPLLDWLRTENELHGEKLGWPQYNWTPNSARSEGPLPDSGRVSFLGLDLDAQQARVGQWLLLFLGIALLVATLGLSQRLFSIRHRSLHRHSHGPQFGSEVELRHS

SMILES	Ki [µM]
CC(=O)NC(Cc1c[nH]cn1)C(=O)N1CCCC1P(=O)(O)CC(Cc1cc(-c2ccccc2)no1)C(=O)O (centres undefined) [3-({1-[2-acetamido-3-(1H-imidazol-4-yl)propanoyl]pyrrolidin-2-yl}(hydroxy)phosphoryl)-2-[(3-phenyl-1,2-oxazol-5-yl)methyl]propanoic acid]	> 10
CC(=O)NC(CC(C)C)C(=O)N1CCCC1P(=O)(O)CC(Cc1cc(-c2ccccc2)no1)C(=O)O (centres undefined) [3-{[1-(2-acetamido-4-methylpentanoyl)pyrrolidin-2-yl](hydroxy)phosphoryl}-2-[(3-phenyl-1,2-oxazol-5-yl)methyl]propanoic acid]	> 10
CC(=O)NC(CC(C)C)C(=O)N1CCCC1P(=O)(O)CC(Cc1ccccc1)C(=O)O (centres undefined) [The second fraction of the HPLC chromatogram.]	> 10
CC(=O)NC(Cc1c[nH]cn1)C(=O)N1CCCC1P(=O)(O)CC(Cc1ccccc1)C(=O)O (centres undefined) [The second fraction of the HPLC chromatogram.]	> 10

Source: BindingDB's records for doi:10.1021/jm701275z (University of Athens, 2008)
